Columns and labels:
[1] = tested on: Eca109 cells; test: colony formation / cell proliferation assay; type: cell-based, human; details: 5, 10, 15, 20 μM, 48 hours treatment, 7 days incubation
Protocol: (§1) Eca109 and KYSE150 are cultured in RPMI1640 medium supplemented with 10% fetal calf serum, 100 U/ml penicillin and 100 μg/ml streptomycin in a humidified atmosphere containing 5% CO2 at 37° C. 0.25% trypsin is used for digestion and passage; cells under logarithmic growth phase are used in the experiment.
(§2) Eca109 (500 cells/well) and KYSE150 (250 cells/well) are seeded in a 6-well plate. […] On the 7th day, cells are fixed with 4% paraformaldehyde, stained with 0.1% crystal violet and imaged under a light microscope.

[2] = tested on: KYSE150 cells; test: colony formation / cell proliferation assay; type: cell-based, human; details: 5, 10, 15, 20 μM, 48 hours treatment, 7 days incubation
Protocol: as §1, §2

[3] = tested on: Eca109 cells; test: cell cycle analysis by PI flow cytometry; type: cell-based, human; details: 48 hours
Protocol: as §1, with “passage,” for “passage;”
Eca109 and KYSE150 (2×10^5 cells/well) are seeded to a 6-well place and treated with GPX or SFB (20 μM/well) for 48 hours. Cells are then harvested and fixed in 70% cold ethanol and stored 4° C. overnight. The cells are incubated with PI containing RNase A for 30 mins at 37° C., and are analyzed by flow cytometry (BD Biosciences Inc., Franklin Lakes, N.J., USA).

[4] = tested on: KYSE150 cells; test: matrigel transwell cell invasion assay; type: cell-based, human; details: 5, 10, 15, 20 μM, 24 hours
[5] = tested on: KYSE150 cells; test: cell cycle analysis by PI flow cytometry; type: cell-based, human; details: 48 hours
Protocol: as §1, with “passage,” for “passage;”
[…] Cells are then harvested and fixed in 70% cold ethanol and stored 4° C. overnight. The cells are incubated with PI containing RNase A for 30 mins at 37° C., and are analyzed by flow cytometry (BD Biosciences Inc., Franklin Lakes, N.J., USA).

[6] = tested on: Eca109 cells; test: transwell cell migration assay; type: cell-based, human; details: 5, 10, 15, 20 μM, 24 hours
Protocol: as §1
(§3) Eca109 and KYSE150 (5×10^4 cells/well) are seeded to the upper chamber (8 μm pore size) of the transwell chambers. The upper chamber contains serum-free; the lower chamber contains 10% FBS. Cells are treated with GPX for 24 hours, medium is then removed, non-migrated cells found on the upper chamber are removed using a cotton swab. Migrated cells found on the bottom chamber are fixed with 4% paraformaldehyde, stained with 0.1% crystal violet and scored under a light microscope in five random fields as shown in FIG. 3. Experimental data are expressed as mean±standard deviation, using SPSS18.0 statistical software for analysis, One-Way ANOVA for variance, comparison using Student t test, **P<0.01, ***P<0.001 is considered as statistically significant difference.

[7] = tested on: KYSE150 cells; test: transwell cell migration assay; type: cell-based, human; details: 5, 10, 15, 20 μM, 24 hours
Protocol: as §1, §3

[8] = tested on: KYSE150 lung metastasis; test: lung metastasis animal model (KYSE150 cells injected intravenously); type: in vivo; details: nude mice, 20 mg/kg every another day for 35 days; for number of lung tumor nodules / size / area of lung nodules (metastatic foci): HE staining, 20 mg/kg
Protocol: as §1, with “incubator” for “atmosphere”
KYSE150 cells (1×10^6 cells/mouse) are intravenously injected into 6-week old male nude mice (Experimental Animal Center of the Chinese Academy of Science, Shanghai, China). The 6-week old male nude mice weight 20 g each. After injection of the cancer cells, the mice are divided into 3 groups randomly (n=8 in each group). DMSO, GPX (20 mg/kg) or 5-FU (20 mg/kg) are administered to the mice intraperitoneally every another day for 35 days. Body weight is measured every 2 days. 35 days later, lungs are removed and weighted. Using Bouin's solution, lungs are fixed, sliced and stained with HE to count number of lung nodules.

[9] = tested on: Eca109 cells; test: matrigel transwell cell invasion assay; type: cell-based, human; details: 5, 10, 15, 20 μM, 24 hours
Protocol: as §1
Transwell chambers (8 μm pore size) used in cell migration assay are pre-incubated with matrigel for 2 hours, Eca109 (1×10^5 cells/well) are seeded onto serum-free upper chambers, lower chamber contains 10% FBS medium. Cells are treatment with GPX for 24 hours, thereafter, medium is discarded, cotton swab is used to gently remove the non invaded cells in the upper chamber. Invaded cells in the lower chamber are fixed with 4% paraformaldehyde, stained with 0.1% crystal violet and scored under a light microscope. Experimental data are expressed as mean±standard deviation, using SPSS18.0 statistical software for analysis, One-Way ANOVA for variance, comparison using Student t test, *P<0.05, **P<0.01, ***P<0.001 is considered as statistically significant difference.

[10] = tested on: esophageal cancer; test: apoptosis in vitro; type: cell-based
[11] = tested on: Eca109 cells; test: scratch (wound healing) migration assay; type: cell-based, human
Protocol: as §1
(§4) Eca109 and KYSE150 under logarithmic growth phase are seeded into 24-well plate (1×10^5 cells/well). When monolayer of cell is formed, use a sterile 100 μl pipette tip to create a scratch on the monolayer, and fresh medium containing different concentration of Griffipavixanthone (GPX) or Sorafenib (SFB) (20 μM/well) are added. Cells are observed at 12 hours and 36 hours after scratch and imaged under IX83 microscope (Olympus, Tokyo, Japan).

[12] = tested on: KYSE150 cells; test: scratch (wound healing) migration assay; type: cell-based, human
Protocol: as §1, §4

[13] = different concentrations of GPX, observed 12 h and 36 h after scratch
[14] = SFB 20 μM/well, positive control

Q: Which “inhibition of cell proliferation (colony formation)” value [1] does the source give for `CC1=C[C@H]2c3c(c(O)c(O)c4oc5cc(O)cc(O)c5c(=O)c34)[C@H](c3cc(O)c(O)c4oc5cc(O)cc(O)c5c(=O)c34)[C@H]2C(C)(C)C1` [GPX, Griffipavixanthone] here?
A: Its value is “inhibits cell proliferation of Eca109 and KYSE150 at 5, 10, 15, 20 μM in a dose dependent manner”.

Q: And the “inhibition of cell proliferation (colony formation)” value [2]?
A: The value was “inhibits cell proliferation of Eca109 and KYSE150 at 5, 10, 15, 20 μM in a dose dependent manner”.

Q: And the “G2/M cell cycle arrest” value ([3]; 5, 10, 15, 20 μM)?
A: The value was “induces G2/M cell cycle arrest in Eca109 and KYSE150 at 5, 10, 15, 20 μM in a dose dependent manner”.

Q: What about the “inhibition of cell invasion” value [4] of the same molecule?
A: Its value is “inhibits cell invasion of Eca109 and KYSE150 at 5, 10, 15, 20 μM in a dose dependent manner”.

Q: And the “G2/M cell cycle arrest” value ([5]; 5, 10, 15, 20 μM)?
A: The value was “induces G2/M cell cycle arrest in Eca109 and KYSE150 at 5, 10, 15, 20 μM in a dose dependent manner”.

Q: And the “inhibition of cell migration (transwell)” value [6]?
A: Its value is “inhibits cell migration of Eca109 and KYSE150 at 5, 10, 15, 20 μM in a dose dependent manner”.

Q: What about the “inhibition of cell migration (transwell)” value [7] of the same molecule?
A: The value was “inhibits cell migration of Eca109 and KYSE150 at 5, 10, 15, 20 μM in a dose dependent manner”.

Q: What about the “inhibition of lung metastasis of KYSE150” value [8] of the same molecule?
A: Its value is “significantly inhibits lung metastasis of KYSE150”.

Q: And the lung weight [8]?
A: Its lung weight is “reduced lung weight”.

Q: What about the “number of lung tumor nodules” value [8] of the same molecule?
A: Its value is “reduced number of lung tumor nodules”.

Q: And the “size / area of lung nodules (metastatic foci)” value [8]?
A: The value was “metastatic foci are sparse and smaller”.

Q: And the “number of lung tumor nodules” value ([8]; listed as Griffipavixanthone)?
A: Its value is “reduces lung nodules”.

Q: What about the “size / area of lung nodules (metastatic foci)” value ([8]; listed as Griffipavixanthone) of the same molecule?
A: The value was “reduces lung nodules and area of pulmonary nodules in lung tissues”.

Q: And the “inhibition of cell invasion” value [9]?
A: The value was “inhibits cell invasion of Eca109 and KYSE150 at 5, 10, 15, 20 μM in a dose dependent manner”.

Q: And the promotion of apoptosis [10]?
A: The promotion of apoptosis was “without promoting apoptosis in vitro”.

Q: What about the “inhibition of cell scratch migration in wound healing” value (shortened to “inhibition of cell scratch migration”) [11, 13] of the same molecule?
A: The value was “inhibits cell migration of Eca109 and KYSE150 in wound healing in a dose dependent manner”.

Q: What about the “inhibition of cell scratch migration” value [12, 13] of the same molecule?
A: Its value is “inhibits cell migration of Eca109 and KYSE150 in wound healing in a dose dependent manner”.

Q: Which “G2/M cell cycle arrest” value [3, 14] does the source give for `CNC(=O)c1cc(Oc2ccc(NC(=O)Nc3ccc(Cl)c(C(F)(F)F)c3)cc2)ccn1` [SFB, Sorafenib, reference compound] here?
A: The value was “the results are in line with SFB”.

Q: What about the “G2/M cell cycle arrest” value [5, 14] of the same molecule?
A: The value was “the results are in line with SFB”.

Q: And the “inhibition of cell scratch migration” value [11, 14]?
A: The value was “significantly inhibit cell scratch migration”.

Q: What about the “inhibition of cell scratch migration” value [12, 14] of the same molecule?
A: Its value is “significantly inhibit cell scratch migration”.
